The text below walks through data of US12370178B2, “Tinostamustine for use in the treatment of t-cell prolymphocytic leukaemia” (Purdue Pharma L.P., priority 2017, dated 2025).

Data set [1] relates to leukaemia/lymphoma cells derived from ΔJAK1 mice. The data set can be described thus: ΔJAK1 mature T-cell lymphoma transfer model in mice. It counts as in vivo. The following applies: for mean survival: 18 mg/kg i.v. on Day 7, 10, 13, 17, 22. Here is the method: Transplantable leukaemia/lymphoma cells derived from ΔJAK1 mice (Heinrich et al, Mol. Ther. 2013, 21, 1160-8; nodal/spleen mature T-cell lymphoma based on insertional mutagenesis activating JAK1) were intravenously injected into background-matched mice (to facilitate the generation of uniform cohorts). 2.5×10^6 cells were transplanted intravenously into Rag1-deficient mice. […] Each treatment group was then treated with 18 mg/kg of either bendamustine, fludarabine, EDO-S101, or with vehicle control on days 7, 10, 13, 17, 22 (DMSO).
Mice were injected with leukaemia/lymphoma cells derived from ΔJAK1 mice, as previously described (FIG. 5). ΔJAK1 is a model for mature T-cell lymphoma. Mice were divided into four groups at random post-transplantation. Each group was intravenously administered either fludarabine (18 mg/kg), bendamustine (18 mg/kg) or EDO-S101 (18 mg/kg) at the indicated doses on Day 7, Day 10, Day 13, Day 17 and Day 22. The percentage survival of each cohort was plotted as a function of time (FIG. 5).

The subject of data set [2] is T-PLL/NKtert co-cultured cells. Put plainly: T-PLL/NKtert co-culture apoptosis, Annexin-V/7-AAD flow cytometry. It counts as cell-based, human. The following applies: 48 hours; for overcoming NKtert associated protection of co-cultured T-PLL cells: 0.1, 1 or 10 μM. The procedure:
For co-culture experiments human bone marrow stromal cells (BMSC) NKtert cells (RIKEN BRC, Japan) were seeded at concentrations of 1.5×10^4 cells/well (96 well plate) and incubated at 37° C. in 5% CO2. After 24 hours, NKtert cells at approximately 60-80% confluency were treated with 0.02 mg/mL Mitomycin C for 3 hours in […], and then washed twice with PBS (Life Technologies). After another 24 hours, 4×10^5 T-PLL cells were added per well (with and without feeder cell support) and treated for 48 hours with the indicated compounds.
Referring to FIG. 3b, the control sample Ø on the left hand graph is normalised to 1 for normal T-PLL cells.
Background: Flow cytometry measures light scatter and fluorescence of single cells or particles in a stream.

The subject of data set [3] is NKtert cells. Put plainly: NKtert bone marrow stromal cell viability, MTT assay. As to conditions: 0.1, 1, 5 or 10 μM, 48 hours. The procedure:
Cells were cultured in a HERAcell incubator (Thermo Scientific Heraeus) at 37° C. and 5% CO2 with 90% humidity. CD4+ mature T-cell leukemia HH cells were originally isolated from a patient with Sézary Syndrome (Starkebaum et al., 1991). NKtert (human bone marrow stromal cells [BMSC]) were purchased from RIKEN Cell Bank in 2011. Only cells derived from the original cell stock as purchased, and which had been propagated for 2 to 3 passages before long-term storage in liquid nitrogen, were used. Cell cultures were terminated after the 10th passage (4 to 6 weeks of being in culture). Cells were authenticated following thawing by evaluation of characteristic growth behaviour and by flow cytometry. Cells were routinely tested for the presence of mycoplasma, using standard PCR protocols (primers: for1: 5′-acaccatgggagytggtaat-3′, (SEQ ID No; 1) rev1: 5′-cttcwtcgattycagacccaaggcat-3 (SEQ ID NO: 2)′, for2: 5′-gtgsggmtggatcacctcct-3 (SEQ ID NO: 3)′, rev2: 5′-gcatccaccawawacyctt-3′ (SEQ ID NO: 4)).
Consequently, the effect on cell viability of NKtert bone marrow stromal cells (BMSC) feeders cells alone was also investigated. Cells were treated with either bendamustine, vorinostat, an equimolar combination of bendamustine and vorinostat, or EDO-S101, at either 0.1, 1, 5 or 10 μM concentrations, incubated for 48 hours, and cell viability assessed using MTT assays (FIG. 3d).
For orientation: Tetrazolium assays rely on reduction of a dye to a coloured formazan, in cell work by metabolically active cells.

Data set [4] relates to HH cells. The data set can be described thus: HH cell viability, Annexin-V/7-AAD flow cytometry. The data set is classed as cell-based, human. As to conditions: 48 hours treatment. The procedure: The alkylating agent bendamustine (MundiPharma) was dissolved in methanol.
Human primary T-PLL cells are unsuitable for cultivation under standard laboratory cell culture conditions, in part, due to their high levels of genomic heterogeneity and variable phenotypes. HH cells are derived from a highly chemotherapy resistant cutaneous lymphoma, and are suitable for cultivation under laboratory conditions. […] HH cells were therefore selected for the in vitro validation of EDO-S101.
To evaluate the cytotoxicity of EDO-S101 in comparison to bendamustine and vorinostat (SAHA), HH cells were treated with either EDO-S101, bendamustine, vorinostat or an equimolar bendamustine/vorinostat combination over a period 48 hours. Cells were treated with either 0.1 μM, 1 μM, 2.5 μM, 5 μM or 10 μM solutions of the indicated compounds (FIG. 1a).
Annexin-V specifically targets and identifies apoptotic cells. 7-AAD is a marker of late stage apoptotic, or necrotic cells. The number of Annexin-V and 7-AAD negative cells was counted for each sample.

For data set [5], the system named is CD2-MTCP1 cells. The data set can be described thus: CD2-MTCP1p13 leukaemia transfer model in mice. As to conditions: for increase in leukemic blood leukocyte (WBC) count: Day 14 vs Day 9 post-transplantation, compared to control and fludarabine; for average post-mortem spleen weight: day 22 post-transplantation, compared to fludarabine or control. The data set is classed as in vivo. From the text: DBA2×C57B6JF1 mice were used as recipients in all experiments. Transplantable leukaemia/lymphoma cells derived from CD2-MTCP1p13 tg mice (Gritti et al, Blood 1998, 92, 268-73; blood, spleen, and bone marrow) were intraperitoneally injected into background-matched mice (to facilitate the generation of uniform cohorts). 1×10^7 cells from CD2-MTCP1p13 mice were intraperitoneally injected into syngeneic recipients (n=26). Starting on day 10 post-transplantation, mice with a homogeneous distribution of leukemic blood leukocytes (WBC) were selected and randomly assigned into four treatment groups. Each group was then treated with either vehicle control (DMSO), fludarabine (34 mg/kg days 10, 15, 17, 21), bendamustine (day 10 at 60 mg/kg, days 15, 17, 21 at 20 mg/kg), and EDO-S101 (day 10 at 50 mg/kg, days 15, 17, 21 at 20 mg/kg) on the indicated days at the indicated doses.
Mice were injected with leukaemia cells derived from CD2-MTCP1 mice, as previously described (FIG. 4a).
CD2-MTCP1 cells are an aggressive, transplantable subline and are suitable for in vivo analysis as a T-PLL like model. […] Each group was intravenously administered either fludarabine (34 mg/kg), bendamustine (Day 10, 60 mg/kg; Day 15-21, 20 mg/kg) or EDO-S101 (Day 10, 50 mg/kg; Day 15-21, 20 mg/kg) at the indicated doses on Day 10, Day 15, Day 17, […] Day 21 post-transplantation. Samples of blood were taken at regular intervals (Day 9 and Day 14 post-transplantation), and the mice sacrificed at 22 days post-transplantation (FIG. 4a).
The blood samples taken were analysed for leukemic blood leukocyte levels (WBC), and the average cell count in each group determined.
Following sacrifice of the mice on day 22 post-transplantation, the post-mortem spleen weights of each mouse were determined (FIG. 4c). The reduced average spleen weight in mouse cohorts treated with bendamustine or EDO-S101, compared to cohorts treated with fludarabine or a control, corroborate the findings previously discussed in FIG. 4b. Tumour manifestation was therefore shown to be less advanced in cohorts treated with EDO-S101 or single-agent bendamustine, compared to fludarabine treated or control cohorts.

In data set [6] the test system is primary human T-PLL cells. The data set can be described thus: cells. As to conditions: 48 h, read-out: LC50.
Procedure: (§2) RPMI-1640 medium (Sigma-Aldrich) supplemented with 1% L-Glutamine (200 mM; Sigma-Aldrich), 10% fetal bovine serum (FBS) (Sigma-Aldrich) and Penicillin/Streptomycin (100 U/0.1M; PAA) was used for in-vitro experimentation on suspension cultures of primary T-PLL cells, healthy CD3+ T cells, HH cells, and in co-culture experiments with NKtert cells. Cell suspensions were maintained at a density of 1.0×10^6 cells/mL (primary T-PLL cells) and 2.5×10^5 cells/mL (HH cells) for all cell culture experiments.
(§3) EDO-S101 (EDO MundiPharma), and vorinostat (SAHA; SML0061-5 mg, Sigma-Aldrich) were dissolved in DMSO. […] Cells were treated with each compound (or compounds) at the indicated concentrations and times. Dosing was based on published ranges and IC50/LD50 titrations. Cell apoptosis was determined using dual staining for Annexin-V (AnxV) and 7AAD via flow cytometry.
(§4) To further evaluate apoptosis in cells treated with EDO-S101, primary human T-PLL cells were treated with either vorinostat, bendamustine, EDO-S101, or an equimolar combination of vorinostat and bendamustine, at 0.01 μM, 0.1 μM, 1 μM, 5 μM or 10 μM concentrations, and incubated for 48 hours. Following treatment, cell death was evaluated by staining cells with the apoptosis markers Annexin-V and 7-AAD, and the number of apoptotic cells quantified by flow cytometry. Each experiment was repeated for the indicated number of times, and the average number of apoptosis negative cells plotted and normalised relative to an untreated control sample. A dose response curve (FIG. 3a) for each treatment was subsequently plotted, and the LD50 (median lethal dose) of each treatment determined.
(§5) To evaluate the protections conferred by NKtert cells to primary human T-PLL cells, NKtert cells and T-PLL cells were co-cultured for treatment with EDO-S101. Primary T-PLL cells with (FIG. 3b) and without (FIG. 3c) co-cultures of NKtert cells were treated with increasing concentrations (0.1, 1, or 10 μM) of vorinostat, bendamustine, an equimolar combination of vorinostat and bendamustine, or EDO-S101, and incubated for 48 hours.
(§6) Following treatment, cell death was evaluated by staining cells with the apoptosis markers Annexin-V and 7-AAD, and the number of apoptotic cells quantified by flow cytometry. Each experiment was repeated for the indicated number of times, and the average number of apoptosis negative cells plotted as a ratio relative to an untreated control sample (FIG. 3b, FIG. 3c).
In data set [7] the test system is primary human T-PLL cells.
Procedure: as §2, §3, §4, §5, §6
The test system of data set [8] is T-PLL cells. The data set can be described thus: Western blot analysis of patient T-PLL samples. The data set is classed as cell-based, human. The following applies: 1 μM, 36 hours. Here is the method:
FISH analysis used standard protocols (Vysis, Abbott).
T-PLL cells were cultured in suspension, and treated with either bendamustine (1 μM), vorinostat (1 μM), EDO-S101 (1 μM) or an equimolar combination of vorinostat/bendamustine (1 μM) for 36 hours at the indicated concentrations. After this time, the cells were harvested and lysed, the cell lysate sonicated, centrifuged to remove any cellular debris, and the supernatant collected. The protein concentration of each cell lysate solution (the supernatant) was determined and the western blot performed using standard methods.
The antibodies used were acHistone 3 (Sigma Aldrich), phospho-ATM Serine1981 (Sigma Aldrich), ATM (Sigma Aldrich), phospho-KAP-1 Serine824 (Sigma Aldrich), KAP-1 (Sigma Aldrich), phosphor-p53 Serine15 (Sigma Aldrich), acetyl-p53 (Sigma Aldrich), p53 (Sigma Aldrich), PARP (Sigma Aldrich), cleaved-PARP (Sigma Aldrich), and β-Actin (Sigma Aldrich).
After this time, the cells were harvested, lysed and protein expression levels determined by western blot analysis.
Staining for β-Actin was used as a loading control for each western blot ran (rows a to k, and rows l to o respectively).
In general terms: In western blotting, separated proteins are transferred to a membrane and probed.

The nature of data set [9]: Healthy CD3+ T-cell cytotoxicity. As to conditions: human, healthy CD3+ T-cells, suspension culture; read-out: LC50 (the source's name). The data set is classed as cell-based, human. The source says:
(§1) Healthy CD3+ T-cells were isolated from healthy human donors.

Data set [10] concerns healthy CD3+ T-cells. Put plainly: Healthy CD3+ T-cell cytotoxicity. It counts as cell-based, human. As to conditions: selectivity T-PLL over healthy T-cells.
Text: as §1

The test system of data set [11] is T-PLL. As to conditions: cited from earlier work.
[12] abbreviates: vs bendamustine, vorinostat or combination.

For `Nc1nc(F)nc2c1ncn2[C@@H]1O[C@H](CO)[C@@H](O)[C@@H]1O` [fludarabine, reference compound], the mean survival in [1] worked out at 19 days.
Consider `Cn1c(CCCC(=O)O)nc2cc(N(CCCl)CCCl)ccc21` [bendamustine, reference compound], for which the “overcoming NKtert associated protection of co-cultured T-PLL cells” value (“overcoming NKtert associated protection” for short) in data set [2] is on record as “not as effective as EDO-S101”. The “reduction in viability of NKtert cells” value in [3] was “did not have a pronounced concentration dependent effect”. Besides, the “LD50 (median lethal dose)” value in data set [4] was 8.0 µM. The mean survival in [1] is recorded as 18 days. For the same compound, in data set [5], the “increase in leukemic blood leukocyte (WBC) count” value was “significantly delayed” and the “average post-mortem spleen weight” value is on record as “reduced”. Besides, the CC50 in [6] came out at 7.3 µM.
For `O=C(CCCCCCC(=O)Nc1ccccc1)NO` [vorinostat], the “overcoming NKtert associated protection” value in data set [2] is listed as “not as effective as EDO-S101”. Moreover, the “LD50 (median lethal dose)” value in [4] turned out to be 2.7 µM. For the same compound, in data set [6], the CC50 amounted to 20.4 µM.
Regarding `Cn1c(CCCCCCC(=O)NO)nc2cc(N(CCCl)CCCl)ccc21` [EDO-S101, 7-(5-(bis(2-chloroethyl)amino)-1-methyl-1H-benzo[d]imidazol-2-yl)-N-hydroxyheptanamide], the “overcoming NKtert associated protection” value in data set [2] was “overcame the protection conferred by the NKtert cells”. In data set [2] (co-cultured T-PLL/NKtert cells, 10 μM), the “approximate cell death count” value is on record as “greater than 95%”. Moreover, the “fold increase in potency against T-PLL cells compared to combination of vorinostat and bendamustine” value in data set [7] (LC50 1.0 μM vs 4.4 μM) was roughly 4 fold. For the same compound, in data set [7] (T-PLL cells monoculture, 10 μM, 48 hours), the “approximate cell death count” value is given as “greater than 95%”. For the same compound, in [8] (setting [12]), the “accumulation of acetyl-p53” value is “greatest accumulation”, the “accumulation of p-p53” value is “greatest accumulation”, the “cleaved PARP (cPARP)” value was “greatest increase” and the “levels of pATM” value is on record as “largest increase”. Besides, in data set [8] (setting [12]), the “levels of pKAP1” value is “largest increase” and the “levels of γH2AX” value is reported as “largest increase”. The “acetylation of histone3 (acHistone3)” value in [8] (vs vorinostat or vorinostat + bendamustine) is recorded as “largest increase”. In [3], the “reduction in viability of NKtert cells” value was “largely comparable”. Besides, in data set [4], the “LD50 (median lethal dose)” value came out at 1.5 µM. In addition, in data set [1] (18 mg/kg i.v.), the “increase in average survival time compared to bendamustine or fludarabine” value was no more than 8 days. Moreover, in data set [1], the mean survival was determined as 26 days. Also, the CC50 in data set [9] was found to be 4.4 µM. The “fold more potent against T-PLL cells compared to healthy CD3+ T-cells” value in [10] is recorded as “approximately 4 fold”. Further, in data set [5], the “increase in leukemic blood leukocyte (WBC) count” value was “significantly delayed” and the “average post-mortem spleen weight” value was “reduced”. Further, the CC50 in data set [6] amounted to 1 µM.
For the compound “Alemtuzumab: monoclonal anti-CD52 antibody”, the overall response rates in data set [11] (T-PLL patients) is given as 51-95%. In data set [11] (patients achieving a complete response), the median survival was 15-19 months.
